Test results published in patent publication US7119075B2, “Use of herbal agents for potentiation of bioefficacy of anti infectives” (priority 2003, dated 2006).

Columns and labels:
Experiment in all cases: Inhibitory effect of bioenhancers alone
Type in all cases: cell-based
[1] = system: Pseudomonas aeruginosa ATCC 27583; settings: Pseudomonas aeruginosa, ATCC27583
[2] = system: Escherichia coli ATCC 25922; settings: Escherichia coli, ATCC25922
[3] = system: Staphylococcus epidermidis ATCC 12228; settings: Staphylococcus epidermidis, ATCC12228
[4] = system: Mycobacterium tuberculosis 615; settings: Mycobacterium tuberculosis, 615
[5] = system: Aspergillus flavus MTCC 1973; settings: Aspergillus flavus, MTCC1973
[6] = system: Bacillus cereus RRL 02; settings: Bacillus cereus, RRL02
[7] = system: Klebsiella pneumoniae ATCC 75388; settings: Klebsiella pneumoniae, ATCC75388
[8] = system: Candida tropicalis ATCC 750; settings: Candida tropicalis, ATCC750
[9] = system: Aspergillus fumigatus SI-1; settings: Aspergillus fumigatus, SI1
[10] = system: Candida krusei ATCC 6258; settings: Pichia kudriavzevii, ATCC6258
[11] = system: Mycobacterium tuberculosis H37Rv; settings: Mycobacterium tuberculosis, H37RV, read-out: inhibitory effect
[12] = system: Mycobacterium intracelluare ATCC 13950; settings: Mycobacterium, ATCC13950
[13] = system: Staphylococcus aureus ATCC 29313; settings: Staphylococcus aureus, ATCC29313
[14] = system: Methicillin Resistant Staphylococcus aureus (MRSA); settings: Staphylococcus aureus, MRSA
[15] = system: Staphylococcus hemolyticus ATCC 29978; settings: Staphylococcus, ATCC29978
[16] = system: Salmonella typhi AIIMS 2; settings: Salmonella enterica, TYPHI, read-out: inhibitory effect
[17] = system: Mycobacterium avium ATCC 49601; settings: Mycobacterium avium, ATCC49601

`O=C(/C=C/C=C/c1ccc2c(c1)OCO2)N1CCCCC1` [piperine] showed an inhibition at 0.2 µg/mL ([1]; conc. 0.2 μg/ml) of 0%, an inhibition at 0.8 µg/mL ([1]; conc. 0.8 μg/ml) of 0% and an inhibition at 3.12 µg/mL ([1]; conc. 3.12 μg/ml) of 0%. The inhibition at 12.5 µg/mL ([1]; conc. 12.5 μg/ml) was 0%, the inhibition at 50 µg/mL ([1]; conc. 50 μg/ml) was 0% and the inhibition at 100 µg/mL ([1]; conc. 100 μg/ml) was 0%. For the same compound, the inhibition at 0.2 µg/mL ([2]; conc. 0.2 μg/ml) was 0%, the inhibition at 0.8 µg/mL ([2]; conc. 0.8 μg/ml) was 0% and the inhibition at 3.12 µg/mL ([2]; conc. 3.12 μg/ml) was 0%. It also gave an inhibition at 12.5 µg/mL ([2]; conc. 12.5 μg/ml) of 0%, an inhibition at 50 µg/mL ([2]; conc. 50 μg/ml) of 0% and an inhibition at 100 µg/mL ([2]; conc. 100 μg/ml) of 0%. The inhibition at 0.2 µg/mL ([3]; conc. 0.2 μg/ml) was 0%, the inhibition at 0.8 µg/mL ([3]; conc. 0.8 μg/ml) was 0% and the inhibition at 3.12 µg/mL ([3]; conc. 3.12 μg/ml) was 0%. The inhibition at 12.5 µg/mL ([3]; conc. 12.5 μg/ml) was 0%, the inhibition at 50 µg/mL ([3]; conc. 50 μg/ml) was 20% and the inhibition at 100 µg/mL ([3]; conc. 100 μg/ml) was 50%. For the same compound, the inhibition at 0.2 µg/mL ([4]; conc. 0.2 μg/ml) was 0%, the inhibition at 0.8 µg/mL ([4]; conc. 0.8 μg/ml) was 0% and the inhibition at 3.12 µg/mL ([4]; conc. 3.12 μg/ml) was 0%. It also gave an inhibition at 12.5 µg/mL ([4]; conc. 12.5 μg/ml) of 0%, an inhibition at 50 µg/mL ([4]; conc. 50 μg/ml) of 0% and an inhibition at 100 µg/mL ([4]; conc. 100 μg/ml) of 0%. The inhibition at 0.2 µg/mL ([5]; conc. 0.2 μg/ml) was 0%, the inhibition at 0.8 µg/mL ([5]; conc. 0.8 μg/ml) was 0% and the inhibition at 3.12 µg/mL ([5]; conc. 3.12 μg/ml) was 0%. The inhibition at 12.5 µg/mL ([5]; conc. 12.5 μg/ml) was 0%, the inhibition at 50 µg/mL ([5]; conc. 50 μg/ml) was 20% and the inhibition at 100 µg/mL ([5]; conc. 100 μg/ml) was 50%. It also gave an inhibition at 0.2 µg/mL ([6]; conc. 0.2 μg/ml) of 0%, an inhibition at 0.8 µg/mL ([6]; conc. 0.8 μg/ml) of 0% and an inhibition at 3.12 µg/mL ([6]; conc. 3.12 μg/ml) of 0%. For the same compound, the inhibition at 12.5 µg/mL ([6]; conc. 12.5 μg/ml) was 0%, the inhibition at 50 µg/mL ([6]; conc. 50 μg/ml) was 0% and the inhibition at 100 µg/mL ([6]; conc. 100 μg/ml) was 0%. The inhibition at 0.2 µg/mL ([7]; conc. 0.2 μg/ml) was 0%, the inhibition at 0.8 µg/mL ([7]; conc. 0.8 μg/ml) was 0% and the inhibition at 3.12 µg/mL ([7]; conc. 3.12 μg/ml) was 0%. For the same compound, the inhibition at 12.5 µg/mL ([7]; conc. 12.5 μg/ml) was 0%, the inhibition at 50 µg/mL ([7]; conc. 50 μg/ml) was 0% and the inhibition at 100 µg/mL ([7]; conc. 100 μg/ml) was 0%. For the same compound, the inhibition at 0.2 µg/mL ([8]; conc. 0.2 μg/ml) was 0%, the inhibition at 0.8 µg/mL ([8]; conc. 0.8 μg/ml) was 0% and the inhibition at 3.12 µg/mL ([8]; conc. 3.12 μg/ml) was 0%. It also gave an inhibition at 12.5 µg/mL ([8]; conc. 12.5 μg/ml) of 0%, an inhibition at 50 µg/mL ([8]; conc. 50 μg/ml) of 0% and an inhibition at 100 µg/mL ([8]; conc. 100 μg/ml) of 20%. The inhibition at 0.2 µg/mL ([9]; conc. 0.2 μg/ml) was 0%, the inhibition at 0.8 µg/mL ([9]; conc. 0.8 μg/ml) was 0% and the inhibition at 3.12 µg/mL ([9]; conc. 3.12 μg/ml) was 0%. It also gave an inhibition at 12.5 µg/mL ([9]; conc. 12.5 μg/ml) of 0%, an inhibition at 50 µg/mL ([9]; conc. 50 μg/ml) of 20% and an inhibition at 100 µg/mL ([9]; conc. 100 μg/ml) of 50%. It also gave an inhibition at 0.2 µg/mL ([10]; conc. 0.2 μg/ml) of 0%, an inhibition at 0.8 µg/mL ([10]; conc. 0.8 μg/ml) of 0% and an inhibition at 3.12 µg/mL ([10]; conc. 3.12 μg/ml) of 0%. It also gave an inhibition at 12.5 µg/mL ([10]; conc. 12.5 μg/ml) of 0%, an inhibition at 50 µg/mL ([10]; conc. 50 μg/ml) of 0% and an inhibition at 100 µg/mL ([10]; conc. 100 μg/ml) of 20%. The inhibition at 0.2 µg/mL [11] was 0%, the inhibition at 0.8 µg/mL [11] was 0% and the inhibition at 3.12 µg/mL [11] was 0%. The inhibition at 12.5 µg/mL [11] was 0%, the inhibition at 50 µg/mL [11] was 0% and the inhibition at 100 µg/mL [11] was 0%. The inhibition at 0.2 µg/mL ([12]; conc. 0.2 μg/ml) was 0%, the inhibition at 0.8 µg/mL ([12]; conc. 0.8 μg/ml) was 0% and the inhibition at 3.12 µg/mL ([12]; conc. 3.12 μg/ml) was 0%. For the same compound, the inhibition at 12.5 µg/mL ([12]; conc. 12.5 μg/ml) was 0%, the inhibition at 50 µg/mL ([12]; conc. 50 μg/ml) was 0% and the inhibition at 100 µg/mL ([12]; conc. 100 μg/ml) was 0%. For the same compound, the inhibition at 0.2 µg/mL ([13]; conc. 0.2 μg/ml) was 0%, the inhibition at 0.8 µg/mL ([13]; conc. 0.8 μg/ml) was 0% and the inhibition at 3.12 µg/mL ([13]; conc. 3.12 μg/ml) was 0%. The inhibition at 12.5 µg/mL ([13]; conc. 12.5 μg/ml) was 0%, the inhibition at 50 µg/mL ([13]; conc. 50 μg/ml) was 0% and the inhibition at 100 µg/mL ([13]; conc. 100 μg/ml) was 20%. The inhibition at 0.2 µg/mL ([14]; conc. 0.2 μg/ml) was 0%, the inhibition at 0.8 µg/mL ([14]; conc. 0.8 μg/ml) was 0% and the inhibition at 3.12 µg/mL ([14]; conc. 3.12 μg/ml) was 0%. The inhibition at 12.5 µg/mL ([14]; conc. 12.5 μg/ml) was 0%, the inhibition at 50 µg/mL ([14]; conc. 50 μg/ml) was 0% and the inhibition at 100 µg/mL ([14]; conc. 100 μg/ml) was 20%. It also gave an inhibition at 0.2 µg/mL ([15]; conc. 0.2 μg/ml) of 0%, an inhibition at 0.8 µg/mL ([15]; conc. 0.8 μg/ml) of 0% and an inhibition at 3.12 µg/mL ([15]; conc. 3.12 μg/ml) of 0%. It also gave an inhibition at 12.5 µg/mL ([15]; conc. 12.5 μg/ml) of 0%, an inhibition at 50 µg/mL ([15]; conc. 50 μg/ml) of 20% and an inhibition at 100 µg/mL ([15]; conc. 100 μg/ml) of 50%. It also gave an inhibition at 0.2 µg/mL [16] of 0%, an inhibition at 0.8 µg/mL [16] of 0% and an inhibition at 3.12 µg/mL [16] of 0%. For the same compound, the inhibition at 12.5 µg/mL [16] was 0%, the inhibition at 50 µg/mL [16] was 0% and the inhibition at 100 µg/mL [16] was 0%. The inhibition at 0.2 µg/mL ([17]; conc. 0.2 μg/ml) was 0%, the inhibition at 0.8 µg/mL ([17]; conc. 0.8 μg/ml) was 0% and the inhibition at 3.12 µg/mL ([17]; conc. 3.12 μg/ml) was 0%. It also gave an inhibition at 12.5 µg/mL ([17]; conc. 12.5 μg/ml) of 0%, an inhibition at 50 µg/mL ([17]; conc. 50 μg/ml) of 0% and an inhibition at 100 µg/mL ([17]; conc. 100 μg/ml) of 0%.
